# Measurements published in patent US20160095837A1, “MODULATION OF MITOCHONDRIAL CALCIUM UNIPORTER ACTIVITY FOR TREATING AND PREVENTING ARRHYTHMIAS” (priority 2014, published 2016).
# What was measured:
# [1] = test system: mitochondrial Ca2+ concentration ([Ca2+]mito); assay: Mitochondrial Ca2+ measurement with mt-pericam in cultured SAN cells; assay type: cell-based, mouse; conditions: Ru360 dialysis
# Experimental: (§1) SAN cells were placed in Tyrode's solution at 36±0.5° C. and were identified by their characteristic morphology (spindle or spider shape) and spontaneous activity. SAN cells were identified electrophysiologically by spontaneous action potentials with a slow depolarizing phase 4 and the hyperpolarization-activated current (If).^27 Spontaneous action potentials, If and ICa were recorded using the perforated (amphotericin B or β-escin in studies requiring dialysis of Ru360 and/or ATP) patch-clamp technique^28 on single SAN cells at 36±0.5° C. in Tyrode's solution. Intracellular Ca^2+ transients were recorded from single SAN cells using Fura-2 AM excited at 340 nm and 380 nm and emitted and 510 nm. Endogenous NADH from single SAN cells was measured by excitation at 350 nm and recording emitted light at 460 nm.^29 Mitochondrial Ca^2+ was measured at 535 nm from mt-pericam expressing SAN cells exited at 415 nm^20. Mitochondrial Ca^2+ entry was measured in cell membrane permeabilized cardiomyocytes isolated from DN-MCU transgenic, wild type mice and from HEK293 cells using Calcium green-5N^30.
# Freshly isolated mouse SAN tissue was cut into small pieces and put into 35 mm tissue culture plates with DMEM. […] Expression of the recombinant ratio-5mt-pericam and DN-MCU in SAN cells was detected by GFP fluorescence. […]
# NADH = NADH autofluorescence in SAN cells; assay type: cell-based, mouse; conditions: Ru360 dialysis
# Experimental: as §1
# The autofluorescence of endogenous NADH, which derives primarily from mitochondria,^29,35 was measured as described^29. NADH was excited at 350 nm (AT350/SOX, Chroma) and fluorescence was recorded at 460 nm (ET460/50m and T400LP, Chroma). […]
# [2] = test system: Ca2+ uptake into mitochondria; conditions: in vitro; read-out: IC50, block of Ca2+ uptake into mitochondria in vitro; cited from earlier work
# [3] = test system: Ca2+ uptake into mitochondria in intact myocytes; conditions: incubation with ~10 μM Ru360 for 30 min; cited from earlier work
substance,measurement,setting,value
(μ)[(HCO2)(NH3)4Ru]2OCl3) [Ru360],ISO-induced increase in [Ca2+]mito,[1],prevented
same,ISO-induced increase in NADH fluorescence,NADH,prevented
same,IC50,[2],184 pM
same,Block of Ca2+ uptake into mitochondria in intact myocytes,[3],completely blocks
